From ChEMBL document CHEMBL1157868, “Synthesis and antiviral activity of an imidazo[1,2-a]pyrrolo[2,3-c]pyridine series against the bovine viral diarrhea virus” (Eur J Med Chem, 2010)

Test system: Bovine viral diarrhea virus 1
Test: Antiviral activity against Bovine viral diarrhea virus infected in MDBK cells assessed as protection against virus-induced cytopathogenicity after 5 days
Assay type: functional, organism-based
Conditions: Bovine viral diarrhea virus isolates and strains, 120 h

EC50 [µM]	Structure (SMILES)
5.6	CCOC(=O)c1cc2c(ccn3cc(C)nc23)n1C
0.4	CCOC(=O)c1cc2c(ccn3cc(-c4cccc(OC)c4)nc23)[nH]1
1.1	COC(=O)c1cc2c(ccn3cc(C)nc23)[nH]1
5	CCOC(=O)c1cc2c(ccn3ccnc23)[nH]1
46.5	CCOC(=O)c1cc2c(ccn3cc(CN(C)C)nc23)[nH]1
21.8	CCOC(=O)c1cc2c(ccn3cc(C=O)nc23)[nH]1
14.1	CCOC(=O)c1cc2c(ccn3c(Br)cnc23)[nH]1
2.1	CCCCOC(=O)c1cc2c(ccn3cc(C)nc23)[nH]1
13.1	CCOC(=O)c1cc2c(ccn3cc(Br)nc23)[nH]1
64.8	CCOC(=O)c1cc2c(ccn3c([N+](=O)[O-])c(C)nc23)[nH]1
23.1	CCOC(=O)c1cc2c(ccn3cc(C(C)C)nc23)[nH]1
3.7	CCOC(=O)c1cc2c(ccn3cc(-c4ccccc4)nc23)[nH]1
2.1	CCOC(=O)c1cc2c(ccn3cc(C(OCC)OCC)nc23)[nH]1
50.3	CCOC(=O)c1cc2c(ccn3cc(C(C)(C)C)nc23)[nH]1
2.1	CCOC(=O)c1cc2c(ccn3cc(C)nc23)[nH]1
5.1	Cc1cn2ccc3[nH]c(C(=O)O)cc3c2n1
53.8	CCOC(=O)c1cc2c(ccn3cc(CO)nc23)[nH]1
12.8	CCOC(=O)c1cc2c(ccn3cc(C(F)(F)F)nc23)[nH]1
78.9	CCOC(=O)c1cc2c(ccn3c(Br)c(C)nc23)[nH]1
1.7	COC(=O)c1cc2c(ccn3cc(C)nc23)n1C
47.6	CCOC(=O)c1cc2c(ccn3cc(CCl)nc23)[nH]1
43.9	Cc1cn2ccc3[nH]c(CO)cc3c2n1

Test system: not listed separately
Test: Cytotoxicity against MDBK cells
Assay type: cell-based, Bos taurus
Conditions: cattle

Structure (SMILES)	CC50 [µM]
CCOC(=O)c1cc2c(ccn3cc(C)nc23)n1C	> 100
CCOC(=O)c1cc2c(ccn3cc(-c4cccc(OC)c4)nc23)[nH]1	31.1
COC(=O)c1cc2c(ccn3cc(C)nc23)[nH]1	> 100
CCOC(=O)c1cc2c(ccn3ccnc23)[nH]1	> 100
CCOC(=O)c1cc2c(ccn3cc(CN(C)C)nc23)[nH]1	> 100
CCOC(=O)c1cc2c(ccn3cc(C=O)nc23)[nH]1	> 100
CCOC(=O)c1cc2c(ccn3c(Br)cnc23)[nH]1	> 100
CCCCOC(=O)c1cc2c(ccn3cc(C)nc23)[nH]1	89.8
CCOC(=O)c1cc2c(ccn3cc(Br)nc23)[nH]1	> 100
CCOC(=O)c1cc2c(ccn3c([N+](=O)[O-])c(C)nc23)[nH]1	> 100
CCOC(=O)c1cc2c(ccn3cc(C(C)C)nc23)[nH]1	> 100
CCOC(=O)c1cc2c(ccn3cc(-c4ccccc4)nc23)[nH]1	> 100
CCOC(=O)c1cc2c(ccn3cc(C(OCC)OCC)nc23)[nH]1	99.2
CCOC(=O)c1cc2c(ccn3cc(C(C)(C)C)nc23)[nH]1	> 100
CCOC(=O)c1cc2c(ccn3cc(C)nc23)[nH]1	> 100
Cc1cn2ccc3[nH]c(C(=O)O)cc3c2n1	> 100
CCOC(=O)c1cc2c(ccn3cc(CO)nc23)[nH]1	> 100
CCOC(=O)c1cc2c(ccn3cc(C(F)(F)F)nc23)[nH]1	> 100
CCOC(=O)c1cc2c(ccn3c(Br)c(C)nc23)[nH]1	> 100
COC(=O)c1cc2c(ccn3cc(C)nc23)n1C	> 100
CCOC(=O)c1cc2c(ccn3cc(CCl)nc23)[nH]1	> 100
Cc1cn2ccc3[nH]c(CO)cc3c2n1	> 100

Test system: not listed separately
Test: Selectivity index, CC50 for MDBK cells to EC50 for Bovine viral diarrhea virus
Assay type: toxicity, cell-based
Conditions: cattle, read-out: Ratio CC50/EC50

Structure (SMILES)	selectivity ratio
CCOC(=O)c1cc2c(ccn3cc(C)nc23)n1C	> 17.9
CCOC(=O)c1cc2c(ccn3cc(-c4cccc(OC)c4)nc23)[nH]1	71
COC(=O)c1cc2c(ccn3cc(C)nc23)[nH]1	> 87.2
CCOC(=O)c1cc2c(ccn3ccnc23)[nH]1	> 20
CCOC(=O)c1cc2c(ccn3cc(CN(C)C)nc23)[nH]1	> 2.2
CCOC(=O)c1cc2c(ccn3cc(C=O)nc23)[nH]1	> 4.6
CCOC(=O)c1cc2c(ccn3c(Br)cnc23)[nH]1	> 7.1
CCCCOC(=O)c1cc2c(ccn3cc(C)nc23)[nH]1	41.8
CCOC(=O)c1cc2c(ccn3cc(Br)nc23)[nH]1	> 7.6
CCOC(=O)c1cc2c(ccn3c([N+](=O)[O-])c(C)nc23)[nH]1	> 1.5
CCOC(=O)c1cc2c(ccn3cc(C(C)C)nc23)[nH]1	> 4.3
CCOC(=O)c1cc2c(ccn3cc(-c4ccccc4)nc23)[nH]1	> 27.1
CCOC(=O)c1cc2c(ccn3cc(C(OCC)OCC)nc23)[nH]1	46.6
CCOC(=O)c1cc2c(ccn3cc(C(C)(C)C)nc23)[nH]1	> 2
CCOC(=O)c1cc2c(ccn3cc(C)nc23)[nH]1	> 47.6
Cc1cn2ccc3[nH]c(C(=O)O)cc3c2n1	> 19.6
CCOC(=O)c1cc2c(ccn3cc(CO)nc23)[nH]1	> 1.9
CCOC(=O)c1cc2c(ccn3cc(C(F)(F)F)nc23)[nH]1	> 7.8
CCOC(=O)c1cc2c(ccn3c(Br)c(C)nc23)[nH]1	> 1.3
COC(=O)c1cc2c(ccn3cc(C)nc23)n1C	> 60.6
CCOC(=O)c1cc2c(ccn3cc(CCl)nc23)[nH]1	> 2.1
Cc1cn2ccc3[nH]c(CO)cc3c2n1	> 2.3
